Structures can show the parent of a compound that is named as a salt.
Experiments:
[1] = system: zebrafish lateral line hair cells; experiment: Ototoxic dose response in myo6b::gfp zebrafish larvae; format: in vivo, Danio rerio; details: myo6b::gfp fish; read-out: dose required to elicit 50% of maximal HC damage (EC50)
Method: For drug dose response testing, zebrafish of the wildtype genetic background AB (Table 1) and fish that were transgenic for GFP under the myo6b HC-specific promoter (Tg (myo6b:EGFP), Table 1) were raised as described previously ([Westerfield, 2007]; [Farr et al., 2020]). […]
The resulting images were analyzed for dose-response and drug interaction characteristics with the PEPITA software package, which can be found on GitHub (https://github.com/ma-lab-cgidr/PEPITA-tools). […] Manual masks were created on occasion for avoidance of fluorescent contamination, adjusted segmenting for myo6b::gfp fish to remove inner ear HC fluorescence, or exclusion of dead or damaged fish. Each fish was then adjusted for autofluorescence using the fluorophore-free red channel and scored based on the sum of green fluorescence pixel values surrounding 10 of the top 15 brightest pixels in the masked image (Figures 1B–E). These scores were standardized by comparison with the median score of wells containing untreated fish and a score representing no remaining HC fluorescence, both derived for each plate. […]
To further explore the mechanism of macrolide and aminoglycoside antagonism, we fluorescently labeled the aminoglycosides neomycin and gentamicin with Texas Red-X succinimidyl ester to track HC uptake with and without macrolide treatment (Table 1). […] Drug-induced injury was quantified by loss of fluorescence in HCs. […]

[2] = system: zebrafish lateral line hair cells; experiment: PEPITA quantification of ototoxicity in YO-PRO-1-stained AB zebrafish larvae; format: in vivo
Method: Therefore, at 5 dpf, larvae were transferred to 12-well plates (5–11 fish per well, 1 well per condition) containing the relevant compound or combination diluted with ICS water, or ICS water alone or high-dose neomycin to serve as controls. Unless otherwise noted, fish were exposed to drug (either an individual compound or a pairwise combination of compounds) for 4 h, as a balance between longer exposure times for accommodating varied kill kinetics and shorter exposure times for technical tractability. Treatments with multiple drugs involved co-administering a prepared solution consisting of both drugs with defined concentrations in ICS water.
Fluorescence microscopy was performed using a Keyence BZ-X800 microscope imaging system, which enables high-throughput semi-automated imaging of 96-well plates.
Each image was masked using automated object detection to include only the fish itself. Manual masks were created on occasion for avoidance of fluorescent contamination, adjusted segmenting for myo6b::gfp fish to remove inner ear HC fluorescence, or exclusion of dead or damaged fish. Each fish was then adjusted for autofluorescence using the fluorophore-free red channel and scored based on the sum of green fluorescence pixel values surrounding 10 of the top 15 brightest pixels in the masked image (Figures 1B–E). These scores were standardized by comparison with the median score of wells containing untreated fish and a score representing no remaining HC fluorescence, both derived for each plate.
Wells where the expected response ( Ra×Rb ) and observed response ( Rab ) were both less than 10% or greater than 90% were excluded from aggregation to reduce the effect of our choice of dose range. The remaining wells were summarized by averaging into a composite interaction score for the combination; we refer to this metric as the “windowed excess over Bliss” (wEOB).

[3] = system: zebrafish lateral line hair cells; experiment: Lateral line hair cell intracellular calcium imaging and cell death; format: in vivo
Source text: For calcium testing, zebrafish expressing HC-specific GCaMP targeted to the inner mitochondrial matrix were crossed with fish expressing a HC specific calcium indicator to create double-transgenic embryos (Tg (myo6b:mitoGCaMP3;myo6b:cytoRGECO), Table 1) with both green fluorescent mitochondrial calcium and red fluorescent cytosolic calcium indicators, then raised as described previously ([McQuate et al., 2023]). Zebrafish embryos were collected from 2-h spawning periods and raised in Petri dishes in embryo medium (EM: 14.97 mM NaCl, 500 μM KCl, 42 µM Na2HPO4, 150 µM KH2PO4, 1 mM CaCl2 dehydrate, 1 mM MgSO4, 0.714 mM NaHCO3, pH 7.2) at a density of 60 larvae per […] dish, in a dark 28.5°C incubator until 5 dpf. Larvae were screened for indicator expression at 4 dpf.
Calcium imaging was performed using an inverted Marianas spinning disk confocal system (Intelligent Imaging Innovations, 3i) with an Evolve 10 MHz EMCCD camera (Photometrics) and a Zeiss C-Apochromat 63x/1.2 numerical aperture water objective. Larvae were 5-6 dpf at the time of imaging. Larvae were first anesthetized in embryo media containing 800 µM tricaine, then stabilized on their sides under a harp, so that posterior neuromasts were exposed to the surrounding media. Imaging was performed at ambient temperature, approximately 25°C. GCaMP fluorescence was acquired with a 488 nm laser and 535/30 emission filter, with an exposure time of 100 ms, and RGECO fluorescence was acquired with a 561 nm laser and 617/73 emission filter and exposure time of 200 ms. Images were taken every 2 minutes as z-stacks through neuromasts in 2 µm steps. Neomycin and azithromycin were dissolved as a 4X stock in EM (described in Section 2.1: Zebrafish Husbandry), then added to the bath to achieve final working concentration after a 10-min baseline. Imaging of neuromasts continued for 50 min. Images were analyzed in ImageJ. Mean fluorescence intensity was measured for ROIs of individual randomly selected HCs (2–3 HCs per NM, see example ROI in Figure 4). For each HC, values were normalized to the average of baseline using Microsoft Excel.

Structure (SMILES): NC[C@@H]1O[C@H](O[C@H]2[C@@H](O)[C@H](O[C@@H]3[C@@H](O)[C@H](N)C[C@H](N)[C@H]3O[C@H]3O[C@H](CN)[C@@H](O)[C@H](O)[C@H]3N)O[C@@H]2CO)[C@H](N)[C@@H](O)[C@@H]1O [Neomycin, Neomycin sulfate hydrate]
- EC50 [1]: 20 µM
- RFU (residual HC fluorescence) ([2]; AZM 0 μM, NEO 6.4 μM, 4 h): 10%
- RFU (residual HC fluorescence) ([2]; AZM 96 μM + NEO 6.4 μM, 4 h): 88%
- windowed excess over Bliss (wEOB) ([2]; AZM + NEO checkerboard, negative = antagonism): −0.36
- dose needed to elicit 75% maximal HC damage (EC75) ([2]; NEO alone, 4 h): 3.3 µM
- ototoxic interaction with AZM ([2]; co-administration with AZM): otoprotective antagonistic interactions
- shift toward antagonism in lateral line HC damage as compared to inhibition of the bacterial species on average ([2]; interaction with AZM, zebrafish wEOB vs average of E. coli, M. abscessus, S. aureus): 44 %pt.
- EC75 shift ([2]; ototoxin co-administered with azithromycin (AZM) vs administered alone): 13 fold
- EC75 shift ([2]; ototoxin co-administered with azithromycin (AZM) vs administered alone, listed as Neomycin (NEO)): 13-fold
- EC75 shift ([2]; ototoxin co-administered with erythromycin (ERY) vs administered alone, listed as NEO): 8 fold
- EC75 shift ([2]; ototoxin co-administered with erythromycin (ERY) vs administered alone, listed as Neomycin (NEO)): 8-fold
- ototoxic interaction with clarithromycin (CLM) ([2]; preliminary experiments): antagonistic interactions
- EC50 ([2]; representative experiment, HC damage dose response, read-out: EC50 (PEPITA, relative fluorescence units)): 1.4 µM
- HC mitochondrial and cytoplasmic calcium response ([3]; NEO 50 µM, AZM 190 µM, mitoGCaMP3, cytoRGECO larvae): induced an increase in mitochondrial
- HCs that went on to die, of those analyzed ([3]; NEO alone 50 µM): 66%
- cells that went on to die ([3]; drug alone, calcium imaging): 14/21

From article PMC10955247, “In vivo screening for toxicity-modulating drug interactions identifies antagonism that protects against ototoxicity in zebrafish” (Frontiers in Pharmacology, 2024)
